Measured values as given in US20250197820A1, “NUCLEIC ACID POLYMERASE AND ITS USE IN PRODUCING NON-DNA NUCLEOTIDE POLYMERS” (UNITED KINGDOM RESEARCH AND INNOVATION, priority 2021, published 2025).

Experiments:
2M = target: T1, 2M (Thermococcus gorgonarius, UniProt P56689, A485L/D141A/E143A/E664K/F545L/I521L/K592A/T541G/V93Q/Y409G); test: Steady-state kinetics of single nucleotide incorporation by 2M; format: biochemical; conditions: single nucleotide incorporation from 2′OMe-RNA primer
T1 construct: made in house; host or cells: E. coli BL21 CodonPlus-RIL
Experimental: Steady-state kinetic parameters for NTP incorporation by 2M were determined by performing initial velocity measurements of single incorporations of either ATP, 2′OMe-ATP, or MOE-ATP. To generate the 2′OMe-RNA/DNA substrate, a 20-mer 2′OMe-RNA primer FD was 5′ 6-carboxyfluorescein end-labeled and annealed to the 52-mer DNA template BFL770 (Supplementary Table 1) at a 1:1.2 molar ratio. The reactions were performed at 50° C. in a mixture containing 1× Thermopol buffer, 6 mM Mg^2+, 100 nM 2′OMe-RNA/DNA substrate, and at NTP concentrations ranging from 0.5-250 μM. Enzyme concentrations and reaction times were selected to maintain initial velocity conditions. The 25 μL reactions were stopped by addition of a quenching solution containing 100 mM EDTA, 80% deionized formamide, 0.25 mg/ml bromophenol blue and 0.25 mg/ml xylene cyanol. Moreover, less than 20% of the primers were extended as required for steady-state conditions.
Product and substrate were separated on a 22% denaturing (8 M urea) polyacrylamide gel. The resulting bands were quantified using a Cytiva Typhoon RGB imager in fluorescence mode. Steady-state kinetic parameters (KM, kcat) were determined by fitting the data to the Michaelis-Menten equation. The data are the means and standard error from three independent experiments.

TGK = TGK (Thermococcus gorgonarius, UniProt P56689, A485L/D141A/E143A/E664K/V93Q/Y409G); conditions: ATP incorporation from an RNA primer; cited from earlier work
[1] = 2′OMezyme serum stability; format: in vitro ADME; conditions: 37° C., 120 h
Experimental: PAGE-purified 2′OMezyme “R15/5-K” and DNAzyme “1023_KRasC” were annealed in water as described above, then incubated (at 5 μM) at 37° C. in 95% human serum (MilliporeSigma, Germany). Full-length catalyst remaining was quantified on Urea-PAGE gels stained with SYBR Gold (ThermoFisher Scientific, USA).

[2] = system: ‘wild type’ (wt) KRAS RNA; test: 2′OMezyme RNA cleavage in trans, wild type KRAS substrate; format: biochemical, human; conditions: differs from G12D substrate by one nucleotide (G35)
Experimental: (§1) RNA cleavage assays were performed in trans using PAGE-purified 2′OMezymes and RNA substrates, annealed as described above and incubated at 37° C. in 2′OMezyme selection buffer (30 mM EPPS pH 7.4, 150 mM KCl, 1 mM MgCl2), or 30 mM EPP pH 8.5, 150 mM KCl, 25 mM MgCl2, supplemented with RNasin ribonuclease inhibitor (Promega, USA). In Mg^2+ titration experiments, 2′OMezyme selection buffer was supplemented with additional magnesium chloride (MgCl2); in pH titration experiments, 150 mM KCl, 1 mM MgCl2 plus 50 mM buffer as follows was used: […] (pH 5.0-6.0), EPPS (pH 6.5-8.75), CHES (pH 9.0-12.0). For magnesium free reactions, 30 mM EPPS pH 7.4, 150 mM KCl, 5 mM EDTA was used.

[3] = system: 2.1 kb KRAS transcript (Sub_KRas_ORF); test: 2′OMezyme cleavage of long KRAS transcripts; format: biochemical, human; conditions: 37° C., pH 7.4, 1 mM Mg^2+, 65 h
Experimental: Human cDNA clones for KRAS (transcript variant b, accession no. NM_004985) and CTNNB1 (transcript variant 1, accession no. NM_001904) in plasmids pCMV6-XL6 (SP6 promoter) (cat. no. SC109374) and pCMV6-XL5 (T7 promoter) (cat. no. SC107921), respectively, were obtained from OriGene, USA. Site-directed mutagenesis was performed using a QuikChange II kit (Agilent Technologies, USA), according to the manufacturer's protocol; KRAS mutations G12D (c.35G>A) and G13D ([…]), and CTNNB1 mutation S33Y (c.98C>A) were introduced using primer sets shown in Supplementary Table 2 (“Quik_KRAS_G12D_Fw/Rev”, “Quik_KRAS_G13D_Fw/Rev” or “Quik_CTNNB_G12D_Fw/Rev”) and resulting plasmids cloned and verified by Sanger sequencing (Source Biosciences, UK). Long RNA substrates equivalent to full KRAS and CTNNB1 mRNA transcripts bearing 5′ fluorescein (“Sub_KRas_ORF” and “Sub_CTNNB1_ORF”, respectively) were prepared using HiScribe T7 and SP6 RNA synthesis kits (NEB, USA), according to the manufacturer's protocol, with a 4:1 ratio of 5′-Fluorescein-ApG dinucleotide (IBA Life Sciences, Germany) to GTP, using template plasmids linearised using XmaI (NEB, USA). Reactions were subsequently treated with TURBO DNase (Invitrogen/Thermo Fisher Scientific, USA) and RNA transcripts purified using RNeasy mini kits (Qiagen, Germany). […]

Sub_KRas_12 [G12D] RNA = test: 2′OMezyme RNA cleavage in trans, KRAS G12D substrate; format: biochemical, human
Experimental: as §1
Pseudo first-order reaction rates (kobs) under single-turnover pre-steady-state (Km/kcat) conditions were determined from three independent reactions with (separately annealed) catalyst at 5 μM and substrate at 1 μM, as described previously^8, fit using Prism 9 (GraphPad Software, USA). For multiple turnover reactions, 1 μM substrate was reacted with 10 nM 2′OMezyme at 37° C. in 2′OMezyme selection buffer.

VEGF165 [4] = target: T2, VEGF165 (Homo sapiens, UniProt P15692-4 P15692-4:27-191); test: SPR; overall mean +/-16; PBS + 0.1% Tween20, 20 C; double-exponential fit; conditions: tags: biotinylated, Bio-Techne, captured on Neutravidin chip; chain copies: 2
Experimental: (§2) 2′OMe/MOE-RNA aptamers were synthesized from RNA primer Prim1 and 3′-biotinylated DNA template Temp_ARC224 (Supplementary Table 1) as described in section “Synthesis of 2′OMezymes for characterization” using 2′OMe/MOE-NTPs. 2′OMe/MOE-RNA aptamers were annealed at 1-10 μM in nuclease-free water by heating to 95° C. for 5 min and equilibrating at RT for 10 min. They were then diluted and analysed in PBS+0.1% (v/v) Tween20 (PBS-Tw). Surface Plasmon Resonance (SPR) measurements were made using a BIAcore 2000 instrument (GE Life Sciences, UK) at a flow rate of 20 μLmin⁻¹ at 20° C. CM4 sensor chip (GE Life Sciences, UK) surfaces were coated with Neutravidin (Pierce 31000, ThermoFisher Scientific, USA) surfaces (˜8000 RU per flow cell) using an amine coupling kit (GE Life Sciences, UK) and flowing in 5 mM NaOAc (sodium acetate), pH 5.5. Chips were equilibrated in PBS Tw and left to flow overnight until signal drift had settled. ˜2000 RU biotinylated human VEGF165 (Bio-Techne, USA) was captured (except for the reference cell) before blocking with excess free biotin. 50 μL aptamer samples at a series of concentrations (500 nM, 250 nM, 125 nM, 62.5 nM, 31.3 nM, 15.6 nM, 7.8 nM, 3.9 nM) were injected for 150 s and dissociation was recorded for 600 s, in PBS-Tw. Single injections of aptamers outside of the concentration series were performed at 100 nM (50 μL) in PBS-Tw. […]

VEGF165 [5] = target: T2, VEGF165; test: SPR; overall mean +/-29; PBS + 0.1% Tween20, 20 C; double-exponential fit; conditions: tags: biotinylated, Bio-Techne, captured on Neutravidin chip; chain copies: 2
Experimental: as §2

VEGF165 [6] = target: T2, VEGF165; test: SPR; overall mean +/-88; PBS + 0.1% Tween20, 20 C; double-exponential fit; conditions: tags: biotinylated, Bio-Techne, captured on Neutravidin chip; chain copies: 2
Experimental: as §2

[7] = system: 901 bp DNA template (sfGFP under T7 promoter); test: 2′OMe-RNA transcription reactions with RGVG-M6; format: biochemical; conditions: compared to 2M; dependent on high concentrations of Mn2+
Experimental: DNA template for transcription reactions was created by PCR-amplifying a 901-bp region on a plasmid encoding sfGFP under a T7 promoter. The PCR used 0.5 μM forward primer “5T7.for” and 0.5 μM reverse primer “pCUN_Do.rev”; cycling conditions were 95° C. for 30 s, 30×[95° C. for 10 s, 69° C. for 30 s, 72° C. for 30 s], 72° C. for 2 min.
For very permissive conditions, reactions comprised 125 nM DNA template, 200 nM T7 RNAP WT or its variant RGVG-M613, 1.5 mM MnCl2, 7.5 mM each NTP or 1 mM each 2′OMe-NTP, 0.1 U yeast inorganic pyrophosphatase. In order to compare the yield of 2′OMe-RNA synthesis by 2M and RGVG-M6, reactions were run under equimolar nucleic acid input of 0.5 pmol primer (2M) and 0.5 pmol DNA template (50 nM, RGVG-M6), and 50 nM RGVG-M6 polymerase with a polymerase:template ratio of 1:1 as described in 13. Reactions were treated with Turbo DNase and Proteinase K followed by denaturing PAGE.

In the case of Nc1ncnc2c1ncn2[C@@H]1O[C@H](COP(=O)(O)OP(=O)(O)OP(=O)(O)O)[C@@H](O)[C@H]1O [ATP], the “Vmax/kcat values for incorporation” value (2M) is listed as “essentially identical” and the Km (TGK) is listed as 13.3 µM.

For “R15/5-K: RNA endonuclease 2′OMezyme (all 2′OMe-RNA) specific for KRAS RNA c.26 - 44, G12D allele (CCUACGCACGUGACCCAUGACGGACAGAGAAGGCAUGACAGACUGCUCCAA; all 2'-O-methyl, backbone not given here)”, the “degradation (or loss in activity) after incubation in human serum” value [1] was “no significant degradation”, the “cleavage of wt KRAS RNA” value [2] was “essentially no cleavage” and the “cleavage of wt KRAS transcript or G13D (c.38G>A) transcript” value [3] was “virtually no cleavage”. The “cleavage of long structured KRAS transcript bearing G12D” value ([3]; G12D (c.35G>A)) was “able to invade and cleave”, the multiple-turnover catalysis (Sub_KRas_12 [G12D] RNA; 10 nM 2′OMezyme, 1 μM substrate) was “capable of multiple-turnover catalysis” and the kcat (Sub_KRas_12 [G12D] RNA; 1 mM Mg^2+, pH 7.4, 37° C., single turnover) was 3.06e-05 s⁻¹. For the same molecule, the “reduction of single-turnover rate compared with optimal conditions” value (Sub_KRas_12 [G12D] RNA; 1 mM Mg^2+, pH 7.4 vs 25 mM Mg^2+, pH 8.5) was “approximately 50%”, the kcat (Sub_KRas_12 [G12D] RNA; 5 mM EDTA, pH 7.4, 37° C. (absence of Mg^2+)) was 2.8e-07 s⁻¹ and the kcat (Sub_KRas_12 [G12D] RNA; 25 mM Mg^2+, pH 8.5, 37° C., single turnover, 5 μM 2′OMezyme, 1 μM substrate) was 6.67e-05 s⁻¹. For the same molecule, the activity retained (Sub_KRas_12 [G12D] RNA; quasi-physiological low-Mg^2+ regime (0.5-1 mM Mg^2+)) was 70-80%.

With CGATATGCAGTTTGAGAAGTCGCGCATTCG (XNA, all 2'-OMe (A,C,G,U)) [ARC224 2'OMe] the Kd (VEGF165 [4]) was 23 nM.

For CGATATGCAGTTTGAGAAGTCGCGCATTCG (XNA, 2'-OMe G and U, 2'-O-MOE A and C) [ARC224 2'OMe-GU MOE-AC], the Kd (VEGF165 [5]) was 30 nM.

For CGATATGCAGTTTGAGAAGTCGCGCATTCG (XNA, 2'-OMe U, 2'-O-MOE A, C and G) [ARC224 2'OMe-U MOE-ACG], the Kd (VEGF165 [6]) was 92 nM.

B1: RGVG-M6: T7 RNA polymerase variant (P266L, S430P, N433T, E593G, S633P, Y639V, V685A, H784G, F849I, F880Y) (protein, UniProt P00573 1-883, looked up, variant P266L S430P N433T E593G S633P Y639V V685A H784G F849I F880Y)
T7 RNA polymerase: MNTINIAKNDFSDIELAAIPFNTLADHYGERLAREQLALEHESYEMGEARFRKMFERQLKAGEVADNAAAKPLITTLLPKMIARINDWFEEVKAKRGKRPTAFQFLQEIKPEAVAYITIKTTLACLTSADNTTVQAVASAIGRAIEDEARFGRIRDLEAKHFKKNVEEQLNKRVGHVYKKAFMQVVEADMLSKGLLGGEAWSSWHKEDSIHVGVRCIEMLIESTGMVSLHRQNAGVVGQDSETIELAPEYAEAIATRAGALAGISLMFQPCVVPPKPWTGITGGGYWANGRRPLALVRTHSKKALMRYEDVYMPEVYKAINIAQNTAWKINKKVLAVANVITKWKHCPVEDIPAIEREELPMKPEDIDMNPEALTAWKRAAAAVYRKDKARKSRRISLEFMLEQANKFANHKAIWFPYNMDWRGRVYAVPMFTPQGNDMTKGLLTLAKGKPIGKEGYYWLKIHGANCAGVDKVPFPERIKFIEENHENIMACAKSPLENTWWAEQDSPFCFLAFCFEYAGVQHHGLSYNCSLPLAFDGSCSGIQHFSAMLRDEVGGRAVNLLPSETVQDIYGIVAKKVNEILQADAINGTDNGVVTVTDENTGEISEKVKLGTKALAGQWLAYGVTRSVTKRPVMTLAVGSKEFGFRQQVLEDTIQPAIDSGKGLMFTQPNQAAGYMAKLIWESASVTVVAAVEAMNWLKSAAKLLAAEVKDKKTGEILRKRCAVHWVTPDGFPVWQEYKKPIQTRLNLMFLGQFRLQPTINTNKDSEIDAHKQESGIAPNFVGSQDGSHLRKTVVWAHEKYGIESFALIHDSFGTIPADAANLFKAVRETMVDTYESCDVLADFYDQIADQLHESQLDKMPALPAKGNLNLRDILESDYAFA
With B1 the “2′OMe-RNA synthesis activity (in words)” value [7] was “modest”.
